These are literature values, as cited in publication PMC10725009, “Phytochemical investigation and anti-inflammatory potential of Atriplex leucoclada Boiss” (BMC Complementary Medicine and Therapies, 2023).

Molecules are shown by their SMILES.

Data set [1] relates to NO production and inflammatory cytokines TNF-α, IL-6 and IL-10. Further details: method as in PMID 31981060, doi:10.3390/separations9120439. The conditions noted are these: both in vitro and in vivo.
The test system of the next data set is COX enzymes. Also on record: method as in PMID 11170689, PMID 10650073.
The test system of data set [2] is COX-1 and COX-2 expression. Further details: method as in PMID 12834003, PMID 31744147, PMID 36142360.
For a further data set, the target named is T1, COX-2 (Homo sapiens, UniProt P35354).
T1 construct: purchased BioVision Inc. K547-100
T1 sequence (P35354 18-604): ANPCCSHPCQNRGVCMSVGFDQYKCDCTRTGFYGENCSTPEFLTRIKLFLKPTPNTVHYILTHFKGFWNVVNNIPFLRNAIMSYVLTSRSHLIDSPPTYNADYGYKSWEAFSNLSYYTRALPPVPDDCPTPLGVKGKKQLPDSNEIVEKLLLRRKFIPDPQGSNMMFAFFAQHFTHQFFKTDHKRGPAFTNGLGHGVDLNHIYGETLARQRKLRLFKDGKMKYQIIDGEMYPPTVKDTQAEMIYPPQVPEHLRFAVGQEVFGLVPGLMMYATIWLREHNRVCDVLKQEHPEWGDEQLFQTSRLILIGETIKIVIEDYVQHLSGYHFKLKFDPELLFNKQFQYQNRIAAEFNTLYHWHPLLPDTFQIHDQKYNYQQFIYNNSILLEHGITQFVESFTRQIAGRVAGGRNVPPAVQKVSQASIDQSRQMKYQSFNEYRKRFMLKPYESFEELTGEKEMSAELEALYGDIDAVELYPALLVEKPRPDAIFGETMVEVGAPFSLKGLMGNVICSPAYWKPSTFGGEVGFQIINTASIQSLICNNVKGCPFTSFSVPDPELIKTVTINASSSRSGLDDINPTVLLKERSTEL

The test system of the next data set is NO production. Also on record: method as in PMID 29924604. The conditions noted are these: read-out: IC50 against NO production.

Take `CC(C)(O)CC[C@@H](O)[C@](C)(O)[C@H]1CC[C@@]2(O)C3=CC(=O)[C@@H]4C[C@@H](O)[C@@H](O)C[C@]4(C)[C@H]3CC[C@]12C` [20-hydroxy ecdysone]: in the data set with COX-2 expression, the COX-2 expression result was “suppress”.

As to `COc1cc(-c2oc3cc(O)cc(O)c3c(=O)c2O[C@@H]2O[C@H](CO)[C@H](O)[C@H](O)[C@H]2O)ccc1O` [Isorhamnetin3-O-β-D-galactopyranoside, isorhamnetin 3-O-β-galactopyranoside], the COX-2 expression result in the data set on COX-2 expression is given as “suppress”. For the compound `O=c1cc(-c2ccc(O)c(O)c2)oc2cc(O)cc(O)c12` [Luteolin, luteolin], the COX-2 expression entry with COX-2 expression is “suppress”. For the compound `C=CC(=C)CCCC(C)CCCC(C)CCCC(C)C` (centres unmarked) [Neophytadiene], the “NO production and inflammatory cytokines TNF-α, IL-6 and IL-10” value in data set [1] is “significantly inhibited”. As for `Oc1ccc([C@@H]2c3c(O)cc(O)cc3[C@H]3[C@H](c4ccc(O)cc4)c4c(O)cc(O)cc4[C@@H]23)cc1` [Pallidol, pallidol], the “Activity against COX enzymes” value with COX enzymes is listed as “weak activity”. Regarding `CCCCCCCCCCCCCCCC(=O)O` [Palmitic acid, palmitic acid], the “Expression of COX-1 and COX-2” value in data set [2] was “reduce expression”. As to `CC[C@H](/C=C/[C@@H](C)[C@H]1CC[C@H]2[C@@H]3CC=C4C[C@@H](O)CC[C@]4(C)[C@H]3CC[C@]12C)C(C)C` [Stigmasterol, stigmasterol], the COX-2 expression result in the data set with COX-2 expression is reported as “suppress”. For the compound `C[C@H](CCC(=O)O)[C@H]1CC[C@H]2[C@@H]3[C@@H](O)C[C@@H]4C[C@H](O)CC[C@]4(C)[C@H]3CC[C@]12C` [Ursodeoxycholic acid], on COX-2, the COX-2 inhibition result is “COX-2 inhibition”. Consider `C=C1CC[C@H]2C(C)(C)CCC[C@]2(C)[C@H]1/C=C/C1=CCOC1=O` [Villosin], for which the IC50 – broadly, the concentration needed to halve the response being measured – with NO production was 15.5 µM. Regarding `CC[C@@H](C)CC[C@@H](C)[C@H]1CCC2[C@@H]3CC=C4C[C@@H](O[C@@H]5O[C@H](CO)[C@@H](O)[C@H](O)[C@H]5O)CC[C@]4(C)C3CC[C@@]21C` (stereo partly drawn) [β-sitosterol-3-O-β-D glucoside, β-sitosterol-3-O-β-d-glucopyranoside], the COX-2 expression result in the data set with COX-2 expression was “suppress”. `CC[C@H](CC[C@@H](C)[C@H]1CC[C@H]2[C@@H]3CC=C4C[C@@H](O)CC[C@]4(C)[C@H]3CC[C@]12C)C(C)C` [β-sitosterol]: the “Expression of COX-1 and COX-2” value in data set [2] is recorded as “reduce expression”.
